The record followed here is patent US9290507B2, “B-RAF kinase inhibitors” (Boehringer Ingelheim International GmbH, priority 2010, dated 2016).

pIC50: −log10 of the molar value.

Chain of B-Raf (V600E)-kinase (P15056 whole entry V600E): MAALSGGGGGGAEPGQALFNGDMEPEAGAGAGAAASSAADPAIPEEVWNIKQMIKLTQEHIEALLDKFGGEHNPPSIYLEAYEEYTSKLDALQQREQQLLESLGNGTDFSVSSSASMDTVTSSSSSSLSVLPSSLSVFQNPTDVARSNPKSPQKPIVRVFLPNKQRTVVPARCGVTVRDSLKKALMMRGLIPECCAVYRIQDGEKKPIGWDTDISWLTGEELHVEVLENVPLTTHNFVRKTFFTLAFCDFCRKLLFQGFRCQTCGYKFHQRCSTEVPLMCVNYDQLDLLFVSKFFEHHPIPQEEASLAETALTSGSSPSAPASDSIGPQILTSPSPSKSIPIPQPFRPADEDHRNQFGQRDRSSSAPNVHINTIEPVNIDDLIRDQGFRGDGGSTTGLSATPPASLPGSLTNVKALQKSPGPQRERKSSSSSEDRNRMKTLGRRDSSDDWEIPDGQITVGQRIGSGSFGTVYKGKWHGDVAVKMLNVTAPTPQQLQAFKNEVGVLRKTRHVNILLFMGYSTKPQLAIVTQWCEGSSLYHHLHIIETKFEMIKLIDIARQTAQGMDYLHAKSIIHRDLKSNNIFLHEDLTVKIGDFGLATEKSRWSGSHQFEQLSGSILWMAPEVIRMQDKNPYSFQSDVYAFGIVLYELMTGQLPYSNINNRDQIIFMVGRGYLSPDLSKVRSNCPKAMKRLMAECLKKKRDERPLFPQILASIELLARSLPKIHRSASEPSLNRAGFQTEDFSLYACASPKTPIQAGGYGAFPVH

In this assay the target is B-Raf (V600E)-kinase (Homo sapiens (Human), UniProt P15056, V600E). Nature of the assay: Kinase test B-Raf (V600E). In kind it is biochemical. Conditions: 1 h preincubation, 250 μM ATP. The method, then:
In a dilution series 10 μL/well of test substance solution are placed in a multiwell plate. The dilution series is selected so that generally a range of concentrations of 2 μM to 0.119 nM or 0.017 nM is covered. If necessary the initial concentration of 2 μM is changed to 50 μM, 10 μM or 0.4 μM or 0.2857 μM and further dilution is carried out accordingly. The final concentration of DMSO is 5%. 10 μL/well of the B-Raf (V600E)-kinase solution are pipetted in (containing 0.5 ng B-Raf (V600E)-kinase (e.g. from Upstate) in 20 mM Tris-HCl pH 7.5, 0.1 mM EDTA, 0.1 mM EGTA, 0.286 mM sodium orthovanadate, 10% glycerol, 1 mg/mL bovine serum albumin, 1 mM dithiothreitol) and the mixture is incubated for 1 h at RT under with shaking. The kinase reaction is started by the addition of 20 μL/well ATP solution [final concentration: 250 μM ATP, 30 mM Tris-HCl pH 7.5, 0.02% Brij, 0.2 mM sodium orthovanadate, 10 mM magnesium acetate, 0.1 mM EGTA, phosphatase cocktail (Sigma, #P2850, dilution recommended by the manufacturer)] and 10 μL/well MEK1 solution [containing 50 ng biotinylated MEK1 (prepared from purified MEK1 according to standard procedure, e.g. with EZ-Link Sulpho-NHS-LC-Biotin reagent, Pierce, #21335)] and carried out for 60 min at RT with constant shaking. The reaction is stopped by the addition of 12 μL/well of a 100 mM EDTA solution and incubation is continued for a further 5 min. 55 μL/well of the reaction solution are transferred into a streptavidin-coated plate (e.g. Streptawell HighBond, Roche, #11989685001) and shaken gently for 1 h at RT, in order to bind biotinylated MEK1 to the plate. After elimination of the liquid the plate is washed five times with 200 μL/well of 1×PBS and 100 μL/well solution of primary antibody plus europium-labelled secondary antibody [Anti Phospho-MEK (Ser217/221), Cell Signaling, #9121 and Eu-N1 labelled goat-anti-rabbit antibody, Perkin Elmer, #AD0105] is added, the primary antibody is diluted 1:2000 and the secondary antibody is diluted to 0.4-0.5 μg/mL in Delfia Assay Buffer (Perkin Elmer, #1244-111). After 1 h shaking at RT the solution is poured away and washed five times with 200 μL/well Delfia Wash Buffer (Perkin Elmer, #4010-0010/#1244-114). After the addition of 200 μL/well Enhancement Solution (Perkin Elmer, #4001-0010/#1244-105) the mixture is shaken for 10 min at RT and then measured in a Wallac Victor using the program “Delfia Time Resolved Fluorescence (Europium)”. IC50 values are obtained from these dosage-activity curves using a software program (GraphPadPrizm).
In turn, `Cc1ccc(NC(=O)c2ccc(C(C)(C)C)o2)cc1-n1cc(-c2cncc(N3CCNCC3)c2)nn1` [II-21] had a pIC50 of 9.00. The result for `CCOCCN1CCN(c2cncc(-c3cn(-c4cc(NC(=O)c5ccc(C(C)(C)C)o5)ccc4C)nn3)c2)CC1` [II-22] reads 8.15.

`Cc1ccc(NC(=O)c2ccc(C(C)(C)C)s2)cc1-n1cc(-c2cncc(N3CCN(C(=O)OC(C)(C)C)CC3)c2)nn1` [II-23] had a pIC50 of 6.85. This pIC50 is 1.30 log units lower than that of the compound before.

`CCCN1CCN(c2cncc(-c3cn(-c4cc(NC(=O)c5ccc(C(C)(C)C)s5)ccc4C)nn3)c2)CC1` [II-25] showed a pIC50 of 8.05. `CCN1CCN(c2cncc(-c3cn(-c4cc(NC(=O)c5ccc(C(C)(C)C)s5)ccc4C)nn3)c2)CC1` [II-27] had a pIC50 of 8.10. The result for `CCOCCN1CCN(c2cncc(-c3cn(-c4cc(NC(=O)c5ccc(C(C)(C)C)s5)ccc4C)nn3)c2)CC1` [II-28] reads 8.00.

In turn, `Cc1ccc(NC(=O)c2ccc(C(C)(C)C)s2)cc1-n1cc(-c2cncc(N3CCN(C(C)(C)C)CC3)c2)nn1` [II-29] gave a pIC50 of 8.00.

Compound `Cc1ccc(NC(=O)c2ccc(C(C)(C)C)s2)cc1-n1cc(-c2cncc(N3CCN(CC4CC4)CC3)c2)nn1` [II-31] gave a pIC50 of 8.10. `Cc1ccc(NC(=O)c2cc(C)n(C(C)(C)C)n2)cc1-n1cc(-c2cncc(N3CCN(C4CC4)CC3)c2)nn1` [II-34] showed a pIC50 of 7.51. Take `CCN1CCN(c2cncc(-c3cn(-c4cc(NC(=O)c5cc(C)n(C(C)(C)C)n5)ccc4C)nn3)c2)CC1` [II-35]: the negative-log IC50 (pIC50) was 8.00. For `Cc1ccc(NC(=O)c2cc(C)n(C(C)(C)C)n2)cc1-n1cc(-c2cncc(N3CCN(C(C)C)CC3)c2)nn1` [II-36], the pIC50 was 7.89. For the compound `CCCN1CCN(c2cncc(-c3cn(-c4cc(NC(=O)c5cc(C)n(C(C)(C)C)n5)ccc4C)nn3)c2)CC1` [II-37], the pIC50 was 7.96. The result for `Cc1ccc(NC(=O)c2cc(C)n(C(C)(C)C)n2)cc1-n1cc(-c2cncc(N3CCN(C)CC3)c2)nn1` [II-38] reads 7.96. As to `Cc1ccc(NC(=O)c2cc(C)n(C(C)(C)C)n2)cc1-n1cc(-c2cncc(N3CCCN(C)CC3)c2)nn1` [II-39], the negative logarithm of the IC50 (pIC50) was 8.05.

`Cc1ccc(NC(=O)c2cc(CNC(C)(C)C)c(C(C)(C)C)o2)cc1-n1cc(-c2cncc(N3CCOCC3)c2)nn1` [II-40]: the pIC50 was 7.96. Consider `Cc1ccc(NC(=O)c2cc(CNC3CCN(C)CC3)c(C(C)(C)C)o2)cc1-n1cc(-c2cncc(N3CCOCC3)c2)nn1` [II-41], for which the pIC50 was 7.85. The pIC50 values of the last two compounds are within 0.2 log units of each other. The compound `Cc1ccc(NC(=O)c2cc(CN3CCN(C)CC3)c(C(C)(C)C)o2)cc1-n1cc(-c2cncc(N3CCOCC3)c2)nn1` [II-42] showed a pIC50 of 7.80.

`Cc1ccc(NC(=O)c2cc(CN(C)CCN(C)C)c(C(C)(C)C)o2)cc1-n1cc(-c2cncc(N3CCOCC3)c2)nn1` [II-43] had a pIC50 of 7.44. For `Cc1ccc(NC(=O)c2cc(CN(C)C)c(C(C)(C)C)o2)cc1-n1cc(-c2cncc(N3CCOCC3)c2)nn1` [II-44] the value was 7.96. On to `Cc1ccc(NC(=O)c2cc(CNCCN(C)C)c(C(C)(C)C)o2)cc1-n1cc(-c2cncc(N3CCOCC3)c2)nn1` [II-45], for which the negative logarithm of the IC50 (pIC50) is 8.00.
